Experimental data taken from ChEMBL document CHEMBL3217720, “Identification of an inhibitor of the ubiquitinproteasome system that induces accumulation of polyubiquitinated proteins in the absence of blocking of proteasome function” (Medchemcomm, 2014).
Active and inactive are the calls of the source. The calls are words filed in the database; no cut-off is given here.

Key:
[1] = (§1) Cytotoxicity against human CLL cells after 3 days by FMCA method; type: functional, cell-based; conditions: 72 h
[2] = (§2) Cytotoxicity against human Colon cancer cells after 3 days by FMCA method; type: functional, cell-based; conditions: Cancer cell lines, 72 h
[3] = (§3) Cytotoxicity against human Pseudomyxoma peritonei cells after 3 days by FMCA method; type: functional, cell-based; conditions: 72 h
[4] = Cytotoxicity against human MelJuSo cells after 3 days by FMCA method; type: functional, cell-based; conditions: MEL-JUSO, 72 h
[5] = test system: HCT-116; assay: Cytotoxicity against human HCT116 cells after 3 days by FMCA method; type: functional, cell-based; conditions: HCT-116, 72 h
[6] = test system: HL-60; assay: Cytotoxicity against human HL60 cells after 3 days by FMCA method; type: functional, cell-based; conditions: HL-60, 72 h
[7] = test system: Kasumi 1; assay: Cytotoxicity against human Kasumi-1 cells after 3 days by FMCA method; type: functional, cell-based; conditions: Kasumi 1, 72 h
[8] = test system: CCRF-CEM; assay: Cytotoxicity against human CCRF-CEM cells after 3 days by FMCA method; type: functional, cell-based; conditions: 72 h
[9] = Cytotoxicity against human NCI-H929 cells after 3 days by FMCA method; type: functional, cell-based; conditions: NCI-H929, 72 h
[10] = Cytotoxicity against human 8226/DOX40 cells after 3 days by FMCA method; type: functional, cell-based; conditions: 72 h
[11] = Cytotoxicity against human RPMI18226 cells after 3 days by FMCA method; type: functional, cell-based; conditions: RPMI18226, 72 h
[12] = test system: MelJuSo UbG76V-YFP; assay: Inhibition of Ubiquitin-proteasome system in human MelJuSo UbG76V-YFP cells assessed as Hmox-1 accumulation 5 to 10 uM after 18 hrs by immunoblot method; type: cell-based
[13] = test system: MelJuSo UbG76V-YFP; assay: Inhibition of Ubiquitin-proteasome system in human MelJuSo UbG76V-YFP cells assessed as HSP70B' accumulation 5 to 10 uM after 18 hrs by immunoblot method; type: cell-based
[14] = test system: MelJuSo UbG76V-YFP; assay: Inhibition of Ubiquitin-proteasome system in human MelJuSo UbG76V-YFP cells assessed as accumulation of UbG76V-YFP protein at 5 to 10 uM after 18 hrs by immunoblot method; type: cell-based
[15] = test system: MelJuSo UbG76V-YFP; assay: Inhibition of Ubiquitin-proteasome system in human MelJuSo UbG76V-YFP cells assessed as accumulation of K48-linked poly-ubiquitinated proteins at 5 to 10 uM after 18 hrs by immunoblot method; type: cell-based
[16] = test system: MelJuSo UbG76V-YFP; assay: Inhibition of Ubiquitin-proteasome system in human MelJuSo UbG76V-YFP cells assessed as HSP70B' accumulation 50 uM after 18 hrs by immunoblot method; type: cell-based
[17] = test system: MelJuSo UbG76V-YFP; assay: Inhibition of Ubiquitin-proteasome system in human MelJuSo UbG76V-YFP cells assessed as HSP70B' accumulation 5 to 20 uM after 18 hrs by immunoblot method; type: cell-based
[18] = test system: MelJuSo UbG76V-YFP; assay: Inhibition of Ubiquitin-proteasome system in human MelJuSo UbG76V-YFP cells assessed as p21 accumulation 20 to 50 uM after 18 hrs by immunoblot method; type: cell-based
[19] = test system: MelJuSo UbG76V-YFP; assay: Inhibition of Ubiquitin-proteasome system in human MelJuSo UbG76V-YFP cells assessed as accumulation of UbG76V-YFP protein at 50 uM after 18 hrs by immunoblot method; type: cell-based
[20] = test system: MelJuSo UbG76V-YFP; assay: Inhibition of Ubiquitin-proteasome system in human MelJuSo UbG76V-YFP cells assessed as accumulation of K48-linked poly-ubiquitinated proteins at 5 to 100 uM after 18 hrs by immunoblot method; type: cell-based
[21] = biological target: T1, 26S proteasome (Homo sapiens) (UniProt Q99460+P49721+P20618+P28074+P28062+P28065+P28072+O00487+P25786+P25787+P25788+P25789+P28066+P60900+O14818+Q8TAA3+P40306+A5LHX3+P49720+P28070+Q99436+Q16186+P35998+P62191+P43686+P62333+P17980+P62195+Q13200+O43242+O00232+O00231+Q15008+P51665+Q9UNM6+P55036+P48556+P60896); assay: Inhibition of erythrocyte 20S proteasome (unknown origin) assessed as inhibition of chymotrypsin activity at 50 uM after 15 mins using Suc-LLVY-AMC substrate by fluorescence assay; type: protein-complex assay
[22] = biological target: T1, 26S proteasome (Homo sapiens); assay: Inhibition of erythrocyte 20S proteasome (unknown origin) assessed as inhibition of chymotrypsin activity at 10 uM after 15 mins using Suc-LLVY-AMC substrate by fluorescence assay; type: protein-complex assay
[23] = test system: MelJuSo UbG76V-YFP; assay: Inhibition of Ubiquitin-proteasome system in human MelJuSo UbG76V-YFP cells assessed as accumulation of K48-linked poly-ubiquitinated proteins at 10 uM after 18 hrs by immunoblot method; type: cell-based
[24] = test system: MelJuSo UbG76V-YFP; assay: Inhibition of Ubiquitin-proteasome system in human MelJuSo UbG76V-YFP cells assessed as accumulation of UbG76V-YFP protein at 5 uM after 18 hrs by immunoblot method; type: cell-based
[25] = test system: MelJuSo UbG76V-YFP; assay: Inhibition of Ubiquitin-proteasome system in human MelJuSo UbG76V-YFP cells assessed as accumulation of K48-linked poly-ubiquitinated proteins at 5 uM by immunoblot method; type: cell-based
[26] = test system: MelJuSo UbG76V-YFP; assay: Inhibition of Ubiquitin-proteasome system in human MelJuSo UbG76V-YFP cells assessed as accumulation of UbG76V-YFP protein at 5 uM; type: cell-based
[27] = test system: HEK293; assay: Inhibition of Ubiquitin-proteasome system in human HEK293 cells assessed as accumulation of ornithine decarboxylase-green fluorescent fusion protein at 5 uM after 16 hrs; type: cell-based
[28] = test system: CLL; assay: as §1; type: functional, cell-based
[29] = test system: Cancer cell lines; assay: as §2; type: functional, cell-based
[30] = species: Homo sapiens; assay: as §3; type: functional, cell-based
[31] = biological target: T1, 26S proteasome (Homo sapiens); conditions: MelJuSo UbG76V-YFP, 0.1 uM
Description: Inhibition of 20S proteasome in human MelJuSo UbG76V-YFP cells assessed as accumulation of K48-linked poly-ubiquitinated proteins at 0.1 uM after 6 hrs by immunoblot method

[32] = biological target: T1, 26S proteasome (Homo sapiens); conditions: MelJuSo UbG76V-YFP, 0.1 uM; remark: listed apart in the source
Description: Inhibition of 20S proteasome in human MelJuSo UbG76V-YFP cells assessed as accumulation of UbG76V-YFP protein at 0.1 uM after 6 hrs by immunoblot method

O=P(Oc1ccccc1)(Oc1ccccc1)OC1C=CS(=O)(=O)C1 (stereo unspecified)
IC50 [1]: 690 nM | IC50 [2]: 1700 nM | IC50 [3]: 510 nM | IC50 [4]: 5400 nM | IC50 [5]: 5800 nM | IC50 [6]: 2500 nM | IC50 [7]: 1900 nM | IC50 [8]: 1800 nM | IC50 [9]: 610 nM | IC50 [10]: 2800 nM | IC50 [11]: 1300 nM | inhibition [12]: Active | inhibition [13]: inactive | inhibition [14]: inactive | inhibition [15]: Active | inhibition [16]: Active | inhibition [17]: inactive | inhibition [18]: Active | inhibition [19]: Active | inhibition [20]: Active | inhibition [21]: Active | inhibition [22]: inactive | inhibition [23]: Active | inhibition [24]: inactive | inhibition [25]: Active | inhibition [26]: Active | inhibition [27]: Active

CC1(C)C(N(O)C(=O)Nc2ccc(Cl)cc2)N(c2ccc(Cl)cc2)C(=O)N1CC(=O)N/N=C/C=C/c1ccc([N+](=O)[O-])o1 (stereo unspecified)
inhibition [12]: Active | inhibition [13]: inactive | inhibition [14]: inactive | inhibition [15]: Active

O=C(CCl)Nc1cccc(NC2=NS(=O)(=O)c3ccccc32)c1
inhibition [12]: Active | inhibition [13]: inactive | inhibition [14]: inactive | inhibition [15]: Active

COc1cc(/C=C/C(=O)N2CCC=CC2=O)cc(OC)c1OC
inhibition [13]: inactive

CC(C)C[C@H](NC(=O)[C@H](Cc1ccccc1)NC(=O)c1cnccn1)B(O)O
inhibition [28]: Active | inhibition [29]: Active | inhibition [30]: Active | inhibition [31]: Active | inhibition [32]: Active
